The test system of the test is HCV pseudoparticles (genotype 1a HCV E1 and E2 envelope, H77C isolate). Briefly: microbe, parasite or virus in culture. As to conditions: Hepatitis C virus. Format: cell-based.
[1] abbreviates: Huh-7, read-out: Activity (EC50 class), HCV pseudoparticles (genotype 1a, H77C) in Huh7 cells, EC50 expressed as class A/B.
[2] abbreviates: Huh-7, 48 h, read-out: Activity (EC50 class), HCV pseudoparticle infection of Huh7 cells, luciferase 2 days after infection, EC50 expressed as class A/B.
Where [3] appears, read: Huh-7, 48 h, HCV pseudoparticle infection of Huh7 cells, luciferase 2 days after infection, average of duplicates.
The mark [4] stands for this setting: Huh-7, 48 h, HCV pseudoparticles (genotype 1a, H77C) in Huh7 cells, average of duplicate, luciferase 2 days after infection.
[5] abbreviates: Huh-7, 48 h, read-out: Activity (EC50 class), HCV pseudoparticles, Huh7 cells, luciferase 2 days after infection, average of duplicates.

The structures appear in SMILES notation. Like-named read-outs stand apart in the source and are kept apart here.

Here are results for 41 compounds from patent US8916702B2 (priority 2012, dated 2014).

Regarding `COC(=O)[C@H](CNC(=O)C(=O)Nc1ccc(-c2nc(OC)cc(OC)n2)cc1)NC(=O)c1ccc(Nc2nc(NC3(c4ccc(Cl)cc4)CC3)nc(OCC(F)(F)F)n2)cc1` [Compound 3185], the concentration giving a half-maximal response (EC50) (commonly the midpoint of the concentration-response curve) under setting [1] was in the range of 0.01 to 10 nM.

As to `CC(C)(CNC(=O)C(=O)Nc1ccc2[nH]ccc2c1)CNC(=O)c1ccc(Nc2nc(NC3(c4ccc(Cl)cc4)CC3)nc(OCC(F)(F)F)n2)cc1` [Compound 3338], under setting [1], the EC50 lay in the range of 0.01 to 10 nM. For the compound `CCOCCOc1ccc(NC(=O)C(=O)NCCC(NC(=O)c2ccc(Nc3nc(NC4(c5ccc(Cl)cc5)CC4)nc(OCC(F)(F)F)n3)cc2)C(=O)O)cc1` (stereo not shown) [Compound 3530], the EC50 under setting [1] was in the range of 0.01 to 10 nM. With `CC(C)(CNC(=O)C(=O)Nc1ccc(F)cc1F)CNC(=O)c1ccc(Nc2nc(NC3(c4ccc(Cl)cc4)CC3)nc(OCC(F)(F)F)n2)cc1` [Compound 1539], the EC50 under setting [2] is 0.01 to 10 nM. For `Cc1nc(-c2ccc(NC(=O)C(=O)NC[C@H](NC(=O)c3ccc(Nc4nc(NC5(c6ccc(Cl)cc6)CC5)nc(OCC(F)(F)F)n4)cc3)C(=O)O)cc2)cs1` [Compound 3275], the EC50 under setting [1] lay within 0.01 to 10 nM. As for `COC(=O)[C@H](CCNC(=O)C(=O)Nc1ccccn1)NC(=O)c1ccc(Nc2nc(NC3(c4ccc(Cl)cc4)CC3)nc(OCC(F)(F)F)n2)cc1` [Compound 1237], the midpoint of the response under setting [3], the EC50, lay at 0.77 nM and the 50% effective concentration (EC50) under setting [2] fell in the range of 0.01 to 10 nM. Turning to `COC(=O)[C@H](CNC(=O)C(=O)Nc1ccc(C(=O)N2CCOCC2)cc1)NC(=O)c1ccc(Nc2nc(NC3(c4ccc(Cl)cc4)CC3)nc(OCC(F)(F)F)n2)cc1` [Compound 3099], the half-maximal effective concentration (EC50) under setting [1] lay in the range of 0.01 to 10 nM. Regarding `CC(C)(CNC(=O)C(=O)Nc1ccc(-c2cccc(C(=O)O)c2)cc1)CNC(=O)c1ccc(Nc2nc(NC3(c4ccc(Cl)cc4)CC3)nc(OCC(F)(F)F)n2)cc1` [Compound 1543], the EC50 under setting [2] is 0.01 to 10 nM. As for `O=C(NCC[C@H](NC(=O)c1ccc(Nc2nc(NC3(c4ccc(Cl)cc4)CC3)nc(OCC(F)(F)F)n2)cc1)C(=O)O)C(=O)Nc1ccc(OC2CCOCC2)cc1` [Compound 3546], under setting [1], the EC50 lay within 0.01 to 10 nM. For the compound `COC(=O)[C@H](CNC(=O)C(=O)NCc1ccc(F)cc1)NC(=O)c1ccc(Nc2nc(NC3(c4ccc(Cl)cc4)CC3)nc(OCC(F)(F)F)n2)cc1` [Compound 1133], it took 1.4 nM to reach a half-maximal effect under setting [3] (EC50) and the EC50 under setting [2] fell in the range of 0.01 to 10 nM. With `COC(=O)[C@H](CCNC(=O)C(=O)NC1CCCCCC1)NC(=O)c1ccc(Nc2nc(NC3(c4ccc(Cl)cc4)CC3)nc(OCC(F)(F)F)n2)cc1` [Compound 1141], the EC50 under setting [2] was 0.01 to 10 nM. In the case of `O=C(NC[C@H](NC(=O)c1ccc(Nc2nc(NC3(c4ccc(Cl)cc4)CC3)nc(OCC(F)(F)F)n2)cc1)C(=O)O)C(=O)Nc1ccc(-c2cc[nH]n2)cc1` [Compound 3278], the EC50 under setting [1] is 0.01 to 10 nM.

In the case of `CC(C)(CNC(=O)C(=O)Nc1ccc(-c2csnn2)cc1)CNC(=O)c1ccc(Nc2nc(NC3(c4ccc(Cl)cc4)CC3)nc(OCC(F)(F)F)n2)cc1` [Compound 1598], under setting [2], the EC50 was in the range of 0.01 to 10 nM. On to `COC(=O)[C@H](CNC(=O)C(=O)Nc1ccc(-n2nnnc2C)cc1)NC(=O)c1ccc(Nc2nc(NC3(c4ccc(Cl)cc4)CC3)nc(OCC(F)(F)F)n2)cc1` [Compound 3107], for which the EC50 is 0.92 nM under setting [4] and 0.01 to 10 nM under setting [1].

With `CC(C)(CNC(=O)C(=O)Nc1ccc(OC(F)F)cc1)CNC(=O)c1ccc(Nc2nc(NC3(c4ccc(Cl)cc4)CC3)nc(OCC(F)(F)F)n2)cc1F` [Compound 3562], the EC50 runs as follows: under setting [4], 0.018 nM; under setting [1], 0.01 to 10 nM.

Consider `CCCNC(=O)C(NC(=O)c1ccc(Nc2nc(NC3(c4ccc(Cl)cc4)CC3)nc(OCC(F)(F)F)n2)cc1)C1CCCN(C(=O)C(N)=O)C1` (stereo not shown) [Compound 1019, N-(1-(1-(2-amino-2-oxoacetyl)piperidin-3-yl)-2-oxo-2-(propylamino)ethyl)-4-(4-(1-(4-chlorophenyl)cyclopropylamino)-6-(2,2,2-trifluoroethoxy)-1,3,5-triazin-2-ylamino)benzamide], for which the EC50 under setting [2] lay within 0.01 to 10 nM. On to `COC(=O)[C@H](CCNC(=O)C(=O)NCC(C)c1ccccc1)NC(=O)c1ccc(Nc2nc(NC3(c4ccc(Cl)cc4)CC3)nc(OCC(F)(F)F)n2)cc1` (stereo partly shown) [Compound 1307], for which the EC50 is 0.38 nM under setting [3] and 0.01 to 10 nM under setting [2]. Consider `CC1CCC(NC(=O)C(=O)NCC[C@H](NC(=O)c2ccc(Nc3nc(NC4(c5ccc(Cl)cc5)CC4)nc(OCC(F)(F)F)n3)cc2)C(=O)O)CC1` (stereo partly shown) [Compound 1129], for which, under setting [2], the EC50 lay within 0.01 to 10 nM.

On to `COC(=O)[C@H](CCNC(=O)C(=O)NC(CCO)C1CC1)NC(=O)c1ccc(Nc2nc(NC3(c4ccc(Cl)cc4)CC3)nc(OCC(F)(F)F)n2)cc1` (stereo partly shown) [Compound 1391], for which the EC50 under setting [2] fell in the range of 0.01 to 10 nM. For the compound `CC(C)(CNC(=O)C(=O)Nc1cn[nH]c1)CNC(=O)c1ccc(Nc2nc(NC3(c4ccc(Cl)cc4)CC3)nc(OCC(F)(F)F)n2)cc1` [Compound 3033], the concentration giving a half-maximal response (EC50) under setting [1] was in the range of 0.01 to 10 nM. Consider `CC(C)(CNC(=O)C(=O)Nc1ccccc1N1CCCCC1)CNC(=O)c1ccc(Nc2nc(NC3(c4ccc(Cl)cc4)CC3)nc(OCC(F)(F)F)n2)cc1` [Compound 3016], for which, under setting [1], the EC50 fell in the range of 0.01 to 10 nM. On the same count and under the same terms, as for `Cc1cccc(CNC(=O)C(=O)NCC(C)(C)CNC(=O)c2ccc(Nc3nc(NC4(c5ccc(Cl)cc5)CC4)nc(OCC(F)(F)F)n3)cc2)c1` [Compound 3042], the figure is 0.01 to 10 nM. As for `Cc1ccc(NC(=O)C(=O)NCC(C)(C)CNC(=O)c2ccc(Nc3nc(NC4(c5ccc(Cl)cc5)CC4)nc(OCC(F)(F)F)n3)cc2)c(C)c1` [Compound 3055], the EC50 reads like this: under setting [4], 0.0095 nM; under setting [1], 0.01 to 10 nM. Regarding `Cc1c(Cl)ccc2sc(NC(=O)C(=O)NCC(C)(C)CNC(=O)c3ccc(Nc4nc(NC5(c6ccc(Cl)cc6)CC5)nc(OCC(F)(F)F)n4)cc3)nc12` [Compound 3817], the EC50 was 0.11 nM (Huh-7, 48 h, HCV pseudoparticles, Huh7 cells, luciferase 2 days after infection, average of duplicates) and 0.01 to 10 nM under setting [5]. For `COC(=O)[C@H](CCNC(=O)C(=O)Nc1ccc(N(C)c2nc(C)cc(C)n2)cc1)NC(=O)c1ccc(Nc2nc(NC3(c4ccc(Cl)cc4)CC3)nc(OCC(F)(F)F)n2)cc1` [Compound 3133], the EC50 under setting [1] was in the range of 0.01 to 10 nM. For `CC(C)(CNC(=O)C(=O)N1CCc2cc(F)ccc21)CNC(=O)c1ccc(Nc2nc(NC3(c4ccc(Cl)cc4)CC3)nc(OCC(F)(F)F)n2)cc1` [Compound 1585], the EC50 is 0.03 nM under setting [3] and 0.01 to 10 nM under setting [2].

Consider `COC(=O)[C@H](CCNC(=O)C(=O)Nc1ccc(-n2ccc(C(F)(F)F)n2)cc1)NC(=O)c1ccc(Nc2nc(NC3(c4ccc(Cl)cc4)CC3)nc(OCC(F)(F)F)n2)cc1` [Compound 3127], for which the EC50 under setting [1] is 0.01 to 10 nM. Still for that read-out and setting: under `CCOCCOc1ccc(NC(=O)C(=O)NCC[C@H](NC(=O)c2ccc(Nc3nc(NC4(c5ccc(Cl)cc5)CC4)nc(OCC(F)(F)F)n3)cc2)C(=O)OC)cc1` [Compound 3309] stands 0.01 to 10 nM; under `CC(C)(CNC(=O)C(=O)NCc1ccccc1F)CNC(=O)c1ccc(Nc2nc(NC3(c4ccc(Cl)cc4)CC3)nc(OCC(F)(F)F)n2)cc1` [Compound 3005], 0.01 to 10 nM. On to `O=C(NC[C@H](NC(=O)c1ccc(Nc2nc(NC3(c4ccc(Cl)cc4)CC3)nc(OCC(F)(F)F)n2)cc1)C(=O)O)C(=O)Nc1cn[nH]c1` [Compound 1354], for which the EC50 under setting [2] is 0.01 to 10 nM. Turning to `C[C@]12C3C1[C@H]3C[C@H]2NC(=O)C(=O)NC[C@H](NC(=O)c1ccc(Nc2nc(NC3(c4ccc(Cl)cc4)CC3)nc(OCC(F)(F)F)n2)cc1)C(=O)O` (stereo partly shown) [Compound 1084], the EC50 by setting is: under setting [3], 0.26 nM; under setting [2], 0.01 to 10 nM. As to `CCOC(=O)[C@H](CCNC(=O)C(=O)N(C)C)NC(=O)c1ccc(Nc2nc(NC3(c4ccc(Cl)cc4)CC3)nc(OCC(F)(F)F)n2)cc1` [Compound 1026, (S)-ethyl 2-(4-(4-(1-(4-chlorophenyl)cyclopropylamino)-6-(2,2,2-trifluoroethoxy)-1,3,5-triazin-2-ylamino)benzamido)-4-(2-(dimethylamino)-2-oxoacetamido)butanoate], the EC50 runs as follows: under setting [3], 2.68 nM; under setting [2], 0.01 to 10 nM. For the compound `COc1ccc(NC(=O)C(=O)NCC(C)(C)CNC(=O)c2ccc(Nc3nc(NC4(c5ccc(Cl)cc5)CC4)nc(OCC(F)(F)F)n3)cc2)cc1F` [Compound 3072], the half-maximal effective concentration (EC50) under setting [1] lay in the range of 0.01 to 10 nM.

As for `COC(=O)[C@H](CNC(=O)C(=O)Nc1cccc(-c2ccccc2)c1)NC(=O)c1ccc(Nc2nc(NC3(c4ccc(Cl)cc4)CC3)nc(OCC(F)(F)F)n2)cc1` [Compound 3695], the 50% effective concentration (EC50) under setting [5] is 0.01 to 10 nM.

As to `COC(=O)[C@H](CCNC(=O)C(=O)NCC1CC1c1cc(F)ccc1F)NC(=O)c1ccc(Nc2nc(NC3(c4ccc(Cl)cc4)CC3)nc(OCC(F)(F)F)n2)cc1` (stereo partly shown) [Compound 1373], the EC50 under setting [2] was 0.01 to 10 nM. As for `CC(C)(CNC(=O)C(=O)Nc1ccc(F)cc1F)CNC(=O)c1ccc(Nc2nc(NC3(c4ccc(Cl)cc4)CC3)nc(OCC(F)(F)F)n2)cc1F` [Compound 3555], under setting [1], the EC50 lay in the range of 0.01 to 10 nM. With `CC1(C)CC(NC(=O)C(=O)NCC[C@H](NC(=O)c2ccc(Nc3nc(NC4(c5ccc(Cl)cc5)CC4)nc(OCC(F)(F)F)n3)cc2)C(=O)O)CC(C)(C)C1` [Compound 1115], the EC50 under setting [2] is 0.01 to 10 nM. On to `Cc1ccc(NC(=O)C(=O)NCC(C)(C)CNC(=O)c2ccc(Nc3nc(NC4(c5ccc(Cl)cc5)CC4)nc(OCC(F)(F)F)n3)cc2)c(F)c1` [Compound 3056], for which a half-maximal response under setting [4] (EC50) required 0.007 nM and the EC50 under setting [1] lay in the range of 0.01 to 10 nM. Regarding `COC(=O)[C@H](CNC(=O)C(=O)Nc1ccc(N2CCCC2=O)cc1)NC(=O)c1ccc(Nc2nc(NC3(c4ccc(Cl)cc4)CC3)nc(OCC(F)(F)F)n2)cc1` [Compound 3097], the EC50 under setting [1] lay within 0.01 to 10 nM.

Regarding `CN(C(=O)C(=O)NCC(C)(C)CNC(=O)c1ccc(Nc2nc(NC3(c4ccc(Cl)cc4)CC3)nc(OCC(F)(F)F)n2)cc1)c1ccc(F)cc1` [Compound 1599], the EC50 under setting [2] is 0.01 to 10 nM. With `COC(=O)[C@H](CCNC(=O)C(=O)Nc1ccc(O)cc1)NC(=O)c1ccc(Nc2nc(NC3(c4ccc(Cl)cc4)CC3)nc(OCC(F)(F)F)n2)cc1` [Compound 1526], the EC50 under setting [2] fell in the range of 0.01 to 10 nM.
